Active and inactive are the calls of the source. No cut-off for these calls is given here.
Columns and labels:
MCF7 = test: Antiproliferative activity against human MCF7 cells assessed as cell growth inhibition incubated for 8 hrs by CCK8 assay; format: functional, cell-based; conditions: MCF7, 8 h
K562 = test: Antiproliferative activity against human K562 cells assessed as cell growth inhibition incubated for 8 hrs by CCK8 assay; format: functional, cell-based; conditions: K562, 8 h
A549 = test: Antiproliferative activity against human A549 cells assessed as cell growth inhibition incubated for 8 hrs by CCK8 assay; format: functional, cell-based; conditions: A549, 8 h
HCT-116 = test: Antiproliferative activity against human HCT-116 cells assessed as cell growth inhibition incubated for 8 hrs by CCK8 assay; format: functional, cell-based; conditions: HCT-116, 8 h
Histone deacetylase 1 = Histone deacetylase 1 (Homo sapiens, UniProt Q13547); test: Inhibition of full-length recombinant human HDAC1 expressed in Baculovirus expression system using Ac-Leu-Gly-Lys(Ac)-AMC as substrate preincubated for 5 mins followed by substrate addition and further incubated for 30 mins by fluorescence based microtiter plate reader assay
[1] = molecular target: T1, DNA topoisomerase 1 (Homo sapiens) (UniProt P11387); test: Inhibition of recombinant Top1 (unknown origin) assessed as inhibition of relaxation of supercoiled pBR322 plasmid DNA at 100 uM incubated for 15 mins by ethidium bromide staining based agarose gel electrophoresis analysis
T1 sequence (whole entry): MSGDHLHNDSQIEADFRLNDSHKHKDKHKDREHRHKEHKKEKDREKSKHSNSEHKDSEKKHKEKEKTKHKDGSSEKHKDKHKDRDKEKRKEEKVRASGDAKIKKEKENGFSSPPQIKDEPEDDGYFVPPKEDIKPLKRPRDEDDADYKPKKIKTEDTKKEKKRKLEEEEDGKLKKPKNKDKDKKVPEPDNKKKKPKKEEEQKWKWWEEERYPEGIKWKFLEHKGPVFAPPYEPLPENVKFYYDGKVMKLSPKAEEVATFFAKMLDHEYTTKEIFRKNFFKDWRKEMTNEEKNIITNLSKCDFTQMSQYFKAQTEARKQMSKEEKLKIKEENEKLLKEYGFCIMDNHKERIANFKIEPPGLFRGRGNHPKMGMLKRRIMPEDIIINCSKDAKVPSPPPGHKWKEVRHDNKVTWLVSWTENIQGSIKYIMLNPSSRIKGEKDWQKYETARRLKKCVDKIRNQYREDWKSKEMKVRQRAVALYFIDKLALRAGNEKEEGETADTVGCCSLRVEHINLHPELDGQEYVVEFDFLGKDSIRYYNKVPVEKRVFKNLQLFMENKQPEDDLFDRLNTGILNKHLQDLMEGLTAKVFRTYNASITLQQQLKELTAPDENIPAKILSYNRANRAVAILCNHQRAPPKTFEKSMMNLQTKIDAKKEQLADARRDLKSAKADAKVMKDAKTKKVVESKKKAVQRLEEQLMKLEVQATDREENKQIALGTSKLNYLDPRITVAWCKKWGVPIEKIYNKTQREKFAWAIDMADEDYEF

HepG2 = test: Antiproliferative activity against human HepG2 cells assessed as cell growth inhibition incubated for 8 hrs by CCK8 assay; format: functional, cell-based; conditions: HepG2, 8 h
HEL = test: Antiproliferative activity against HEL cells assessed as cell growth inhibition incubated for 8 hrs by CCK8 assay; format: functional, cell-based; conditions: Homo sapiens
[2] = molecular target: DNA topoisomerase 2-alpha (Homo sapiens) (UniProt P11388); test: Inhibition of recombinant Top2 (unknown origin) assessed as inhibition of relaxation of supercoiled pBR322 plasmid DNA at 100 uM incubated for 15 mins by ethidium bromide staining based agarose gel electrophoresis analysis
[3] = molecular target: DNA topoisomerase 2-alpha (Homo sapiens) (UniProt P11388); test: Inhibition of recombinant Top2 (unknown origin) assessed as inhibition of relaxation of supercoiled pBR322 plasmid DNA at 50 uM incubated for 15 mins by ethidium bromide staining based agarose gel electrophoresis analysis

Histone deacetylase 1, sequence (Q13547 whole entry): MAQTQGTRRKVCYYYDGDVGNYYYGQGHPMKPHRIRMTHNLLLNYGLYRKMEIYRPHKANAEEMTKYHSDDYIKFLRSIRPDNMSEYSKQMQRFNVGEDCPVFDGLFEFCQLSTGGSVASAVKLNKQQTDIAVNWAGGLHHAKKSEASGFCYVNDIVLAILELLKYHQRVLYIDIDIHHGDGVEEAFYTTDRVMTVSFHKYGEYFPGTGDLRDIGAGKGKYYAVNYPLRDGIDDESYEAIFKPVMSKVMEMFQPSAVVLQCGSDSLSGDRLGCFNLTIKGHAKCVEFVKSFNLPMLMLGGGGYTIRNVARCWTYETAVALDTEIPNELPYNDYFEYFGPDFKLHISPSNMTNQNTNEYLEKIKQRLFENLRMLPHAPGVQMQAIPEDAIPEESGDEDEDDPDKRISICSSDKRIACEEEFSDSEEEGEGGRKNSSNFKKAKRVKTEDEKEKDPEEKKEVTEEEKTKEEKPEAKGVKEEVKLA
DNA topoisomerase 2-alpha (Homo sapiens), sequence (P11388 whole entry): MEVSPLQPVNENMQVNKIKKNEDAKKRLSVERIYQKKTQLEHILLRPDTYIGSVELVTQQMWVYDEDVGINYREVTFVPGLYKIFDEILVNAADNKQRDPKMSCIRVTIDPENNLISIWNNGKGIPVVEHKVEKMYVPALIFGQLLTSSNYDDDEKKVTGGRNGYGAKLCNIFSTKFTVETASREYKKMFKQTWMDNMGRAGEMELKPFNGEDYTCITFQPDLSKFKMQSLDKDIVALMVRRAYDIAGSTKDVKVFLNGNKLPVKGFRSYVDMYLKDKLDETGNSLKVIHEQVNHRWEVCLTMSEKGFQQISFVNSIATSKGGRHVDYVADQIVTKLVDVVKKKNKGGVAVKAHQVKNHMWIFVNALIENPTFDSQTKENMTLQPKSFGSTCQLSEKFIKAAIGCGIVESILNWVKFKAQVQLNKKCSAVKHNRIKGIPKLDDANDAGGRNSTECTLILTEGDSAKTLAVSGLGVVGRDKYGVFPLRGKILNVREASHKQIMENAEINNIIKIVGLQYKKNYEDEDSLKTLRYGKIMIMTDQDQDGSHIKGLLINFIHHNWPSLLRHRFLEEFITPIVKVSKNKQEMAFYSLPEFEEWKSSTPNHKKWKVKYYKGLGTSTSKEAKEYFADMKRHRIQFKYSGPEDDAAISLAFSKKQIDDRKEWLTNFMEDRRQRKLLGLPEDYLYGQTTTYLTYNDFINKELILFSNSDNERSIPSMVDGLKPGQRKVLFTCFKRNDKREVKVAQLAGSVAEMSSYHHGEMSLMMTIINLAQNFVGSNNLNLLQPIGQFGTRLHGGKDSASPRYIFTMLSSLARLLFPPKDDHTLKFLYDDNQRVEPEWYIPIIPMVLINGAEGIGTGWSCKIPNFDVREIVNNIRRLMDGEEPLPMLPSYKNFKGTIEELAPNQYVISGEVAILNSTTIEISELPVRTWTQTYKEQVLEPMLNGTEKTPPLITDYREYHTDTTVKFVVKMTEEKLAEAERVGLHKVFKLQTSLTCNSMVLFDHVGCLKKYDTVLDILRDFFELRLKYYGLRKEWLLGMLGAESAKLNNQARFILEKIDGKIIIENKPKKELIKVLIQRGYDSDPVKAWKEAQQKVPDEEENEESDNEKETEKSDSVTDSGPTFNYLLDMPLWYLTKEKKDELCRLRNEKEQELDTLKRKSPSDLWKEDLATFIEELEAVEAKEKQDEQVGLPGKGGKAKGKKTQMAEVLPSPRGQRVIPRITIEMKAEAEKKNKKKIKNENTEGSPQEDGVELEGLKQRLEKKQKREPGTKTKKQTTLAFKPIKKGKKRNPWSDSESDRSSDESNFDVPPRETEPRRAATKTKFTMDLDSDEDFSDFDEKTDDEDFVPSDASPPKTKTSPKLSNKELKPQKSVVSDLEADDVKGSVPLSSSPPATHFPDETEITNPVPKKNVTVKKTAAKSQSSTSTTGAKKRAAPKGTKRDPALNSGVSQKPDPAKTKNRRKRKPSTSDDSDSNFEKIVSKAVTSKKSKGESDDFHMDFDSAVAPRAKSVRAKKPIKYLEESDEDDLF

SMILES | IC50 (MCF7) [nM] | IC50 (K562) [nM] | IC50 (A549) [nM] | IC50 (HCT-116) [nM] | IC50 (Histone deacetylase 1) [nM] | inhibition [1] | IC50 (HepG2) [nM] | inhibition [2] | inhibition [3] | IC50 (HEL) [nM]
CN1c2ccc(F)cc2C(=O)N2CCc3c([nH]c4ccc(OCCCC(=O)Nc5ccccc5N)cc34)C21 (stereo not drawn) | 52000 | 280 | 1250 | 1030 | 2200 | inactive | 160 |  |  | 350
CN1c2ccc(F)cc2C(=O)N2CCc3c([nH]c4ccc(OCCCCCCCC(=O)NO)cc34)C21 (stereo not drawn) | > 2000 | > 2000 | 1580 | > 2000 | 150 | Active | > 2000 | inactive |  | 1580
CN1c2ccc(F)cc2C(=O)N2CCc3c([nH]c4ccc(OCCCCCC(=O)Nc5ccccc5N)cc34)C21 (stereo not drawn) | > 2000 | 1200 | 720 | > 2000 | 320 | inactive | > 2000 |  |  | 1100
CN1c2ccc(F)cc2C(=O)N2CCc3c([nH]c4ccc(OCCCCC(=O)NO)cc34)C21 (stereo not drawn) | 1560 | 410 | 330 | > 2000 | 21 | inactive | 810 | Active | Active | 580
CN1c2ccc(F)cc2C(=O)N2CCc3c([nH]c4ccc(OCc5cccc(C(=O)NO)c5)cc34)C21 (stereo not drawn) | > 2000 | > 2000 | > 2000 | > 2000 | 1900 | Active | 1620 | Active | Active | 580
CN1c2ccc(F)cc2C(=O)N2CCc3c([nH]c4ccc(OCc5ccc(C(=O)Nc6ccccc6N)cc5)cc34)C21 (stereo not drawn) | 1910 | 250 | > 2000 | > 2000 | 31 | Active | 125000 |  |  | 44
CN1c2ccc(F)cc2C(=O)N2CCc3c([nH]c4ccc(OCCCCC(=O)Nc5ccccc5N)cc34)C21 (stereo not drawn) | 1260 | > 2000 | 820 | 600 | 2100 | inactive | 1250 |  |  | 720
CN1c2ccc(F)cc2C(=O)N2CCc3c([nH]c4ccc(OCc5ccc(CC(=O)NO)cc5)cc34)C21 (stereo not drawn) | > 2000 | 180 | > 2000 | > 2000 | 360 | Active | 520 | Active | Active | 100
CN1c2ccc(F)cc2C(=O)N2CCc3c([nH]c4ccc(OCc5cccc(C(=O)Nc6ccccc6N)c5)cc34)C21 (stereo not drawn) | > 2000 | 1380 | 1320 | > 2000 | 3600 | inactive | 420 |  |  | 660

More lines, in order of falling IC50 (MCF7), values ahead:

IC50 (MCF7) [nM] | IC50 (K562) [nM] | IC50 (A549) [nM] | IC50 (HCT-116) [nM] | IC50 (Histone deacetylase 1) [nM] | inhibition [1] | IC50 (HepG2) [nM] | inhibition [2] | inhibition [3] | SMILES | IC50 (HEL) [nM]
1230 | 550 | > 2000 | > 2000 | 2200 | Active | > 2000 | Active | Active | CN1c2ccc(F)cc2C(=O)N2CCc3c([nH]c4ccc(OCCCC(=O)NO)cc34)C21 (stereo not drawn) | 270
830 | 1380 | 810 | > 2000 | 25 | Active | 1260 | Active | Active | CN1c2ccc(F)cc2C(=O)N2CCc3c([nH]c4ccc(OCCCCCCC(=O)Nc5ccccc5N)cc34)C21 (stereo not drawn) | 1850
800 | 86 | 1210 | 150 | 6100 | Active | 120 | Active | Active | CN1c2ccc(F)cc2C(=O)N2CCc3c([nH]c4ccc(OCc5ccccc5C(=O)NO)cc34)C21 (stereo not drawn) | 290
420 | 920 | 830 | 220 | 1900 | inactive | 440 |  |  | CN1c2ccc(F)cc2C(=O)N2CCc3c([nH]c4ccc(OCc5ccccc5C(=O)Nc5ccccc5N)cc34)C21 (stereo not drawn) | 820
210 | > 2000 | 630 | 830 | 3 | Active | 200 | Active | Active | CN1c2ccc(F)cc2C(=O)N2CCc3c([nH]c4ccc(OCCCCCCC(=O)NO)cc34)C21 (stereo not drawn) | > 2000
160 | 250 | > 2000 | 500 | 32 | inactive | 98 | Active | Active | CN1c2ccc(F)cc2C(=O)N2CCc3c([nH]c4ccc(OCc5ccc(C(=O)NO)cc5)cc34)C21 (stereo not drawn) | > 2000
150 | 670 | 300 | 120 | 4 | inactive | 210 | Active | Active | CN1c2ccc(F)cc2C(=O)N2CCc3c([nH]c4ccc(OCCCCCC(=O)NO)cc34)C21 (stereo not drawn) | 100
140 | 910 | 8300 | 970 |  |  | 3300 |  |  | CC[C@@]1(O)C(=O)OCc2c1cc1n(c2=O)Cc2cc3c(CN(C)C)c(O)ccc3nc2-1 [TOPOTECAN] | 26000
